Values after ≈ are worked out from the molar mass of the structure shown.
Key:
Experiment in all cases: ≥ marks a high value that may be exact or a test limit, other limits are often not marked, values filed in µg/mL are converted to µM
Staphylococcus aureus = test system: Staphylococcus aureus
Bacillus subtilis 168 = test system: Bacillus subtilis 168
[1] = test system: Candida albicans F7-39/IDE99
Pseudomonas aeruginosa = test system: Pseudomonas aeruginosa
Escherichia coli B = test system: Escherichia coli B
[2] = test system: Staphylococcus aureus NCTC 10788
[3] = test system: Candida albicans NCPF 1467
[4] = test system: Escherichia coli NCTC 10418
Bacillus subtilis = test system: Bacillus subtilis

MIC (Staphylococcus aureus) | MIC (Bacillus subtilis 168) | MIC [1] | MIC (Pseudomonas aeruginosa) | MIC (Escherichia coli B) | MIC [2] | MIC [3] | MIC [4] | MIC (Bacillus subtilis) | Compound
– | – | – | – | – | 16 µM (≈ 32.4 µg/mL) | ≥ 120 µM | – | – | CC[C@H](C)[C@H](NC(=O)[C@H](C)NC(=O)CNC(=O)[C@H](Cc1ccccc1)NC(=O)[C@@H](N)Cc1ccccc1)C(=O)N[C@@H](C)C(=O)N[C@@H](C)C(=O)N[C@@H](C)C(=O)N[C@@H](CC(C)C)C(=O)N1CCC[C@H]1C(=O)N[C@@H](Cc1cnc[nH]1)C(=O)N[C@H](C(=O)N[C@H](C(=O)N[C@@H](CO)C(=O)N[C@@H](C)C(=O)N[C@H](C(=O)N[C@@H](CCCCN)C(=O)N[C@@H](CC(N)=O)C(=O)N[C@@H](C)C(=O)N[C@@H](CC(C)C)C(=O)O)[C@@H](C)CC)[C@@H](C)CC)C(C)C [FFGAIAAALPHVISAIKNAL]
– | – | – | – | – | ≥ 50 µM | ≥ 150 µM | – | – | CC[C@H](C)[C@H](NC(=O)[C@H](CC(C)C)NC(=O)[C@H](CO)NC(=O)[C@@H](NC(=O)[C@H](CC(C)C)NC(=O)[C@H](C)NC(=O)[C@@H]1CCCN1C(=O)[C@@H](NC(=O)[C@H](CC(C)C)NC(=O)[C@H](Cc1ccccc1)NC(=O)[C@@H]1CCCN1C(=O)[C@H](CC(C)C)NC(=O)[C@@H](N)Cc1ccccc1)[C@@H](C)CC)[C@@H](C)O)C(=O)N[C@@H](CO)C(=O)N[C@@H](CO)C(=O)N[C@@H](CC(C)C)C(N)=O [FLPFLIPALTSLISSL]
– | – | – | – | – | ≥ 120 µM | ≥ 160 µM | ≥ 160 µM | – | CC[C@H](C)[C@H](NC(=O)[C@H](CO)NC(=O)CNC(=O)CNC(=O)[C@@H](NC(=O)[C@H](CC(C)C)NC(=O)[C@H](CO)NC(=O)[C@@H]1CCCN1C(=O)[C@@H](NC(=O)[C@H](CC(C)C)NC(=O)[C@H](CO)NC(=O)[C@H](CC(C)C)NC(=O)[C@@H](N)Cc1ccccc1)[C@@H](C)CC)C(C)C)C(=O)N[C@@H](CO)C(=O)N[C@@H](C)C(=O)N[C@@H](Cc1ccccc1)C(=O)N[C@@H](CCCCN)C(=O)O [FLSLIPSLVGGSISAFK]

Further lines, the molecule ahead of its results:

Compound | MIC (Staphylococcus aureus) | MIC (Bacillus subtilis 168) | MIC [1] | MIC (Pseudomonas aeruginosa) | MIC (Escherichia coli B) | MIC [2] | MIC [3] | MIC [4] | MIC (Bacillus subtilis)
CSCC[C@H](NC(=O)CNC(=O)[C@H](Cc1ccccc1)NC(=O)[C@H](C)N)C(=O)N[C@@H](C)C(=O)N[C@@H](CC(C)C)C(=O)N[C@@H](CCCCN)C(=O)N[C@@H](CC(C)C)C(=O)N[C@@H](CC(C)C)C(=O)N[C@@H](CCCCN)C(=O)N[C@@H](CCCCN)C(=O)N[C@H](C(=O)N[C@@H](CC(C)C)C(N)=O)C(C)C [AFGMALKLLKKVL] | 4.7 µM (≈ 6.73 µg/mL) | 1.3 µM (≈ 1.86 µg/mL) | 10 µM (≈ 14.3 µg/mL) | 38.3 µM (≈ 54.8 µg/mL) | 4.7 µM (≈ 6.73 µg/mL) | – | – | – | –
CC[C@H](C)[C@H](NC(=O)[C@H](C)NC(=O)[C@H](C)NC(=O)[C@H](CC(C)C)NC(=O)[C@@H](NC(=O)[C@H](CCCCN)NC(=O)[C@H](CCCNC(=N)N)NC(=O)[C@@H]1CCCN1C(=O)[C@H](CC(C)C)NC(=O)CN)[C@@H](C)CC)C(=O)N[C@@H](C)C(=O)N[C@@H](CCCCN)C(=O)N[C@@H](CCCCN)C(=O)N[C@@H](CCCCN)C(=O)NCC(=O)N[C@@H](CCCCN)C(=O)N[C@H]1CSSC[C@@H](C(=O)O)NC(=O)[C@H](CCCCN)NC(=O)[C@H](C)NC(=O)[C@H](C(C)C)NC(=O)[C@H](CC(C)C)NC(=O)[C@H](CCCCN)NC(=O)[C@H](CC(C)C)NC(=O)[C@@H]2CCCN2C(=O)CNC(=O)[C@H](CCCCN)NC1=O [GLPRKILAAIAKKKGKCKGPLKLVAKC] | > 100 µM | – | ≥ 50 µM | > 100 µM | ≥ 100 µM | – | – | – | 4.2 µM (≈ 11.9 µg/mL)
CC[C@H](C)[C@H](NC(=O)CNC(=O)[C@@H]1CCCN1C(=O)[C@H](CC(C)C)NC(=O)[C@H](C)NC(=O)[C@H](CC(N)=O)NC(=O)[C@H](CCCCN)NC(=O)[C@H](Cc1ccccc1)NC(=O)[C@H](C)NC(=O)[C@H](CO)NC(=O)[C@H](CC(C)C)NC(=O)[C@@H](NC(=O)CN)C(C)C)C(=O)N[C@@H](CCSC)C(=O)N[C@@H](CCCCN)C(=O)N[C@H](C(=O)N[C@H](C(=O)N[C@H](C(N)=O)C(C)C)[C@@H](C)CC)[C@@H](C)CC [GVLSAFKNALPGIMKIIV] | – | – | – | – | – | 4.28 µM (≈ 8 µg/mL) | 8.55 µM (≈ 16 µg/mL) | ≥ 34.2 µM | –

Reference: DBAASP
